US12564610B2, “Human periventricular endothelial cell therapy for neuropsychiatric disorders” (The McLean Hospital Corporation, priority 2019, dated 2026)

Tests used:
Assay type in all cases: cell-based
[1] = test system: GABAergic interneurons on pre-incubated human periventricular endothelial cells; assay: Interneuron migration over chemical-pre-treated periventricular endothelial cells; settings: interneurons migrate 48 hours, vs control
Procedure: Migration assays with chemicals: To assess the roles of GABA or SDF-1/CXCL12 signaling on migration of human periventricular endothelial cells, 10^4 cells were seeded in one well insert and allowed to migrate in the presence of respective agonist or antagonist in periventricular endothelial cell medium (without GABA). After five days, cells were fixed, stained with anti-human CD31 antibody (Millipore), imaged and the distance migrated was calculated using ImageJ. To examine the effect of endothelial GABA or endothelial SDF-1/CXCL12 signaling on interneuron migration, human periventricular endothelial cells were seeded in 35 mm dish (10^5 cells/cm^2) and incubated with respective chemical for a period of 48 hours. 3×10^4 GABAergic interneurons were seeded on top of the periventricular endothelial cells using a one-well insert, and allowed to migrate over the pre-incubated periventricular endothelial cells for 2 days. Migration of neurons was assayed by staining with anti-human β-Tubulin antibody (Biolegend) and imaged. The concentration of chemicals used in the assays are as follows: muscimol (Sigma) 100 uM, BMI (Sigma) 100 uM, AMD3100 (Sigma) 50 μM, recombinant human SDF-1α (Peprotech) 40 nM. The chemicals were kept at −20° as concentrated stock solutions and diluted on the day of the experiment.

[2] = test system: human periventricular endothelial cells; assay: Long-distance migration assay of periventricular endothelial cells with chemicals; settings: compared to control (no chemicals added), five days
From the text: Long-distance migration assay: In preparation for migration assays, two-well silicone culture inserts (from ibidi GmbH, Cat #80209) were converted into one-well inserts by cutting with a sharp, sterile blade. Individual one-well inserts were placed in the middle of a 35 mm dish coated with Poly-Ornithine and Laminin. The boundary of the insert was marked on the back of each dish with a thin marker. For this assay, periventricular endothelial cells, control endothelial cells and endothelial cells derived without GABA and WNT7A were used at passage number P2 or P3, while GABA interneurons cultured for six weeks were used. 10^4 periventricular endothelial cells or endothelial cells derived without GABA and WNT7A were seeded in each insert in periventricular endothelial cell medium without GABA. Same number of GABAergic interneurons or control endothelial cells were seeded per insert in their respective manufacturer's recommended medium. The insert was removed after 48 hours and cells cultured for five days. After 5 days, cells were fixed and fluorescently labeled with an anti-human CD31 antibody (for endothelial cells) or an anti-human β-Tubulin antibody (for neurons) and DAPI. The distance between each cell body and the edge of the insert-boundary was measured using ImageJ.
Migration assays with chemicals: To assess the roles of GABA or SDF-1/CXCL12 signaling on migration of human periventricular endothelial cells, 10^4 cells were seeded in one well insert and allowed to migrate in the presence of respective agonist or antagonist in periventricular endothelial cell medium (without GABA). After five days, cells were fixed, stained with anti-human CD31 antibody (Millipore), imaged and the distance migrated was calculated using ImageJ. To examine the effect of endothelial GABA or endothelial SDF-1/CXCL12 signaling on interneuron migration, human periventricular endothelial cells were seeded in 35 mm dish (10^5 cells/cm^2) and incubated with respective chemical for a period of 48 hours. […]

[3] = test system: human periventricular endothelial cells; assay: Junction protein immunostaining in differentiating periventricular endothelial cells (effect of GABA / WNT7A)
Procedure: Endothelial cell differentiation and culture: H9 cells (WiCell, Madison, WI) were maintained in E8 media (Thermo Fisher Scientific) on Matrigel (BD Biosciences)-coated plates and passaged once a week with 0.5 mM EDTA (Thermo Fisher Scientific) in PBS. On day 0 of differentiation, H9 cells were dissociated with Accutase (Sigma), and plated at a density of 10^5 cells/cm^2 on Matrigel-coated plates. […] Rock inhibitor, Y-27632 (1004, Selleck Chemicals) was added for first 24 hours to improve cell survival. On day 2, cells were switched to vascular inducing medium composed of E6 medium (Thermo Fisher Scientific) containing BMP4 (50 ng/ml), SB431542 (5 μM, Cayman Chemicals), GABA (5 μM), WNT7A (500 ng/ml), FGF2 (100 ng/ml, Peprotech) and VEGF-A (50 ng/ml, Peprotech). On day 5, cells were split at 1:6 ratio using Accutase and plated on Matrigel-coated plates in periventricular endothelial cell (PVEC) medium consisting of E6 with VEGF-A (50 ng/ml), FGF2 (100 ng/ml) and GABA (5 μM). On day 7, periventricular endothelial cells were isolated from the mixed population by fluorescence-activated cell sorting (FACS) and seeded on Matrigel-coated plates in periventricular endothelial cells medium at a density of 6×10^5 cells/cm^2. For routine culturing, periventricular endothelial cells were dissociated using Accutase, and seeded on Matrigel-coated plates at a density of 6×10^5 cells/cm^2 (high density seeding) or 1.2×10^5 cells/cm^2 (low density seeding), with medium change every alternate day. Periventricular endothelial cells were cryopreserved after at least one passaging in freezing medium composed of 90% periventricular endothelial cells medium and 10% DMSO. As a source of neurons, we used human iPSC-derived GABAergic neurons from Cellular Dynamics (Madison, WI, Cat #R1013). As control for microarray analysis and for cell migration assays, we used human-iPSC derived endothelial cells from Cellular Dynamics (Madison WI, Cat #R1022), whose gene expression profile is similar to human aortic endothelial cells (HAECs; https://fujifilmedi.com/assets/CDI130925MIPTEC04.pdf). […]

[4] = endothelial cells treated 48 hours with 100 μM

SMILES: NCc1cc(=O)[nH]o1 [muscimol]
- interneuron migration on pre-treated periventricular endothelial cells [1, 4]: significantly higher migratory ability
- periventricular endothelial cell migration ([2]; 100 μM): significant increase in the number of migrating cells

SMILES: c1cc(CN2CCCNCCNCCCNCC2)ccc1CN1CCCNCCNCCCNCC1 [AMD3100]
- interneuron migration on pre-treated periventricular endothelial cells ([1]; endothelial cells treated 48 hours with 50 μM): No discernible effect on interneuron migration
- periventricular endothelial cell migration ([2]; 50 μM): no significant effect on endothelial cell migration

SMILES: C[N+]1(C)CCc2cc3c(cc2[C@H]1[C@@H]1OC(=O)c2c1ccc1c2OCO1)OCO3.[I-] [BMI, bicuculline methiodide]
- interneuron migration on pre-treated periventricular endothelial cells [1, 4]: decreased migration
- periventricular endothelial cell migration ([2]; 100 μM): significant decrease in cell migration

SMILES: NCCCC(=O)O [GABA, gamma amino-butyric acid]
- tight junction formation (Claudin5 and ZO-1 staining) ([3]; 5 uM GABA, in comparison to 50 μM or 100 μM): increases tight junction formation
- localization of tight junction proteins Claudin 5 and ZO-1 ([3]; 50 uM or 100 μM GABA): disrupted the localization of tight junction proteins Claudin 5 and ZO-1
- expression of VE-Cadherin ([3]; increase in GABA levels (5, 50, 100 μM)): not affected by increase in GABA levels
